Measured values reported in ChEMBL document CHEMBL1157977, “Musidunin and musiduol, insect antifeedants from Croton jatrophoides” (2006).

What was measured:
Format in all cases: functional
Pectinophora gossypiella [1] = test: Antifeedant activity against Pectinophora gossypiella second-instar larvae assessed as drug level causing 50% protection of host plant by leaf disc assay relative to control
Pectinophora gossypiella [2] = test: Antifeedant activity against Pectinophora gossypiella second-instar larvae assessed as drug level causing 95% protection of host plant by leaf disc assay relative to control
Spodoptera frugiperda [3] = test: Antifeedant activity against Spodoptera frugiperda second-instar larvae assessed as drug level causing 50% protection of host plant by leaf disc assay relative to control
Spodoptera frugiperda [4] = test: Antifeedant activity against Spodoptera frugiperda second-instar larvae assessed as drug level causing 95% protection of host plant by leaf disc assay relative to control

Compound | Activity (Pectinophora gossypiella [1]) [µg/mL] | Activity (Pectinophora gossypiella [2]) [µg/mL] | Activity (Spodoptera frugiperda [3]) [µg/mL] | Activity (Spodoptera frugiperda [4]) [µg/mL]
COC(=O)C[C@H]1C(C)(C)O[C@@]23OCC4=C5[C@H](O)C[C@@H](c6ccoc6)[C@]5(C)[C@@H](OC(C)=O)[C@H](OC(C)=O)[C@@H]4[C@@]12CCC3=O | 3 | 10 |  | 
CC(=O)O[C@H]1[C@H](OC(C)=O)[C@]2(C)[C@@H](C(=O)C[C@H]2c2ccoc2)[C@]2(C)[C@H](O)C[C@H]3C(C)(C)O[C@]4(O)C(=O)CC[C@]34[C@@H]12 | 4 | 20 | 2 | 36
